Data on 21 compounds can be found in patent US11566002B2, “Substituted tetrahydrocyclopenta[C]pyrroles, substituted dihydropyrrolizines, analogues thereof, and methods using same” (priority 2018, dated 2023).

SMILES strings stand for the structures. Like-named read-outs stand apart in the source and are kept apart here.

This assay concerns HBV rcDNA. Description: HepDE19 assay with bDNA quantitation of HBV rcDNA. The class given is cell-based, hepatitis B virus. The method, then: HepDE19 Assay with bDNA Quantitation of HBV rcDNA:
HepDE19 cell culture system is a HepG2 (human hepatocarcinoma) derived cell line that supports HBV DNA replication and cccDNA formation in a tetracycline (Tet)-regulated manner and produces HBV rcDNA and a detectable reporter molecule dependent on the production and maintenance of cccDNA (Guo, et al., 2007, J. Virol. 81:12472-12484).
HepDE19 (50,000 cells/well) were plated in 96-well collagen-coated tissue-culture treated microtiter plates in DMEM/F12 medium supplemented with 10% fetal bovine serum, 1% penicillin-streptomycin and 1 μg/mL tetracycline and incubated in a humidified incubator at 37° C. and 5% CO2 overnight. Next day, the cells were switched to fresh medium without tetracycline and incubated for 4 hours at 37° C. and 5% CO2. The cells were treated with fresh Tet-free medium with compounds at concentrations starting at 25 μM and a serial, ½ log, 8-point, titration series in duplicate. The final DMSO concentration in the assay was 0.5%. The plates were incubated for 7 days in a humidified incubator at 37° C. and 5% CO2. Following a 7 day-incubation, the level of rcDNA present in the inhibitor-treated wells was measured using a Quantigene 2.0 bDNA assay kit (Affymetrix, Santa Clara, Calif.) with HBV specific custom probe set and manufacturers instructions. Concurrently, the effect of compounds on cell viability was assessed using replicate plates, plated at a density of 5,000 cells/well and incubated for 4 days, to determine the ATP content as a measure of cell viability using the cell-titer glo reagent (CTG; Promega Corporation, Madison, Wis.) as per manufacturer's instructions. The plates were read using a Victor luminescence plate reader (PerkinElmer Model 1420 Multilabel counter) and the relative luminescence units (RLU) data generated from each well was calculated as % inhibition of the untreated control wells and analyzed using XL-Fit module in Microsoft Excel to determine EC50 and EC90 (bDNA) and CC50 (CTG) values using a 4-parameter curve fitting algorithm.
Representative compounds of the invention were tested for their abilities to inhibit formation of relaxed circular DNA (rcDNA) in a HepDE19 assay, as described elsewhere herein.

The mark [1] stands for this setting: HepDE19 cells, Tet-free medium, 7 day-incubation, rcDNA measured by Quantigene 2.0 bDNA assay, top concentration 25 μM, read-out: DE-19 bDNA EC50.
The mark [2] stands for this setting: Hepatitis B virus, HepDE19, 168 h, HepDE19 cells, Tet-free medium, 7 day-incubation, rcDNA measured by Quantigene 2.0 bDNA assay, top concentration 25 μM, read-out: DE-19 bDNA EC50.
Where [3] appears, read: read-out: DE-19 bDNA EC50, HepDE19 cells, Tet-free medium, 7 day-incubation, rcDNA measured by Quantigene 2.0 bDNA assay, top concentration 25 μM.

Turning to `Cn1cc2c(c1C(=O)Nc1ccc(F)c(Cl)c1)CCC2NC(=O)OCC1(C(N)=O)CC(F)(F)C1` (single isomer, unassigned) [Compound 56, (1-Carbamoyl-3,3-difluorocyclobutyl)methyl (1-((3-chloro-4-fluorophenyl)carbamoyl)-2-methyl-2,4,5,6-tetrahydrocyclopenta[c]pyrrol-4-yl)carbamate], the EC50 under setting [1] came to 0.6 µM.

`Cn1cc2c(c1C(=O)Nc1ccc(F)c(Cl)c1)CCC2NC(=O)OCc1nc[nH]n1` (single isomer, unassigned) [Compound 57, (1H-1,2,4-Triazol-3-yl)methyl (1-((3-chloro-4-fluorophenyl)carbamoyl)-2-methyl-2,4,5,6-tetrahydrocyclopenta[c]pyrrol-4-yl)carbamate]: under setting [1], the EC50 was 0.05 µM.

With `Cn1cc2c(c1C(=O)Nc1ccc(F)c(Cl)c1)CCC2NC(=O)OCc1nc[nH]n1` (single isomer, unassigned) [Compound 58, (1H-1,2,4-Triazol-3-yl)methyl (1-((3-chloro-4-fluorophenyl)carbamoyl)-2-methyl-2,4,5,6-tetrahydrocyclopenta[c]pyrrol-4-yl)carbamate], the EC50 under setting [1] worked out at 0.97 µM.

For the compound `Cn1cc2c(c1C(=O)Nc1ccc(F)c(Cl)c1)CCC2NC(=O)OCc1c[nH]nn1` (single isomer, unassigned) [Compound 59, (1H-1,2,3-Triazol-4-yl)methyl (1-((3-chloro-4-fluorophenyl)carbamoyl)-2-methyl-2,4,5,6-tetrahydrocyclopenta[c]pyrrol-4-yl)carbamate], the EC50 under setting [1] was determined as 4.2 µM.

On to `Cn1cc2c(c1C(=O)Nc1ccc(F)c(Cl)c1)CCC2NC(=O)OCc1c[nH]nn1` (single isomer, unassigned) [Compound 60, (1H-1,2,3-Triazol-4-yl)methyl (1-((3-chloro-4-fluorophenyl)carbamoyl)-2-methyl-2,4,5,6-tetrahydrocyclopenta[c]pyrrol-4-yl)carbamate], for which the EC50 under setting [1] is 0.06 µM.

`Cc1cc(NC(=O)c2c3c(cn2C)C(NC(=O)OCc2ncn(C)n2)CC3)ccc1F` (single isomer, unassigned) [Compound 62, (1-methyl-1H-1,2,4-triazol-3-yl)methyl (1-((4-fluoro-3-methylphenyl)carbamoyl)-2-methyl-2,4,5,6-tetrahydrocyclopenta[c]pyrrol-4-yl)carbamate]: the EC50 under setting [2] was found to be 0.09 µM.

As for `Cn1cnc(COC(=O)NC2CCc3c2cn(C)c3C(=O)Nc2ccc(F)c(F)c2)n1` (single isomer, unassigned) [Compound 64, (1-methyl-1H-1,2,4-triazol-3-yl)methyl (1-((3,4-difluorophenyl)carbamoyl)-2-methyl-2,4,5,6-tetrahydrocyclopenta[c]pyrrol-4-yl)carbamate], the EC50 under setting [2] worked out at 0.41 µM.

On to `Cn1cnc(COC(=O)NC2CCc3c2cn(C)c3C(=O)Nc2ccc(F)cc2)n1` (single isomer, unassigned) [Compound 65, (1-methyl-1H-1,2,4-triazol-3-yl)methyl (1-((4-fluorophenyl)carbamoyl)-2-methyl-2,4,5,6-tetrahydrocyclopenta[c]pyrrol-4-yl)carbamate], for which the EC50 under setting [2] was 0.81 µM.

Consider `Cn1cnc(COC(=O)NC2CCc3c2cn(C)c3C(=O)Nc2cccc(F)c2)n1` (single isomer, unassigned) [Compound 66, (1-methyl-1H-1,2,4-triazol-3-yl)methyl (1-((3-fluorophenyl)carbamoyl)-2-methyl-2,4,5,6-tetrahydrocyclopenta[c]pyrrol-4-yl)carbamate], for which the EC50 under setting [2] worked out at 0.9 µM.

Turning to `Cn1cnc(COC(=O)NC2CCc3c2cn(C)c3C(=O)Nc2ccc(F)c(C#N)c2)n1` (single isomer, unassigned) [Compound 67, (1-methyl-1H-1,2,4-triazol-3-yl)methyl (1-((3-cyano-4-fluorophenyl)carbamoyl)-2-methyl-2,4,5,6-tetrahydrocyclopenta[c]pyrrol-4-yl)carbamate], under setting [2], the EC50 turned out to be 0.06 µM.

As to `Cn1cnc(COC(=O)NC2CCc3c2cn(C)c3C(=O)Nc2ccnc(Cl)c2)n1` (single isomer, unassigned) [Compound 68, (1-methyl-1H-1,2,4-triazol-3-yl)methyl (1-((2-chloropyridin-4-yl)carbamoyl)-2-methyl-2,4,5,6-tetrahydrocyclopenta[c]pyrrol-4-yl)carbamate], under setting [2], the EC50 was found to be 0.66 µM.

For the compound `Cn1cnc(COC(=O)NC2CCc3c2cn(C)c3C(=O)Nc2ccc(F)c(C(F)(F)F)c2)n1` (single isomer, unassigned) [Compound 69, (1-Methyl-1H-1,2,4-triazol-3-yl)methyl (1-((4-fluoro-3-(trifluoromethyl)phenyl)carbamoyl)-2-methyl-2,4,5,6-tetrahydrocyclopenta[c]pyrrol-4-yl)carbamate], the EC50 under setting [2] is 0.28 µM.

As for `Cn1cnc(COC(=O)NC2CCc3c2cn(C)c3C(=O)Nc2ccc(F)c(C(F)F)c2)n1` (single isomer, unassigned) [Compound 70, (1-Methyl-1H-1,2,4-triazol-3-yl)methyl (1-((3-(difluoromethyl)-4-fluorophenyl)carbamoyl)-2-methyl-2,4,5,6-tetrahydrocyclopenta[c]pyrrol-4-yl)carbamate], under setting [2], the EC50 turned out to be 0.07 µM.

Take `Cn1cnc(COC(=O)NC2CCc3c2cn(C)c3C(=O)Nc2cc(F)c(F)c(F)c2)n1` (single isomer, unassigned) [Compound 71, (1-methyl-1H-1,2,4-triazol-3-yl)methyl (2-methyl-1-((3,4,5-trifluorophenyl)carbamoyl)-2,4,5,6-tetrahydrocyclopenta[c]pyrrol-4-yl)carbamate]: the EC50 under setting [2] came to 0.18 µM.

Consider `Cn1cnc(COC(=O)NC2CCc3c2cn(C)c3C(=O)Nc2ccnc(C(F)(F)F)c2)n1` (single isomer, unassigned) [Compound 73, (1-methyl-1H-1,2,4-triazol-3-yl)methyl (2-methyl-1-((2-(trifluoromethyl)pyridin-4-yl)carbamoyl)-2,4,5,6-tetrahydrocyclopenta[c]pyrrol-4-yl)carbamate], for which the EC50 under setting [2] is 0.54 µM.

Turning to `COC(=O)NC1CCCc2c1cn(C)c2C(=O)Nc1ccc(F)c(Cl)c1` (single isomer, unassigned) [Compound 74, Methyl (1-((3-chloro-4-fluorophenyl)carbamoyl)-2-methyl-4,5,6,7-tetrahydro-2H-isoindol-4-yl)carbamate], the EC50 (Hepatitis B virus, HepDE19, 168 h, read-out: DE-19 bDNA EC50 (μM), HepDE19 cells, Tet-free medium, 7 day-incubation, rcDNA measured by Quantigene 2.0 bDNA assay, top concentration 25 μM) worked out at 0.61 µM.

Take `Cn1cc2c(c1C(=O)Nc1ccc(F)c(Cl)c1)CCCC2N` (single isomer, unassigned) [Compound 75, 4-Amino-N-(3-chloro-4-fluorophenyl)-2-methyl-4,5,6,7-tetrahydro-2H-isoindole-1-carboxamide]: under setting [2], the EC50 is 2.1 µM.

Turning to `Cn1cc2c(c1C(=O)Nc1ccc(F)c(Cl)c1)CCCC2NC(=O)C1CC1` (single isomer, unassigned) [Compound 76, N-(3-chloro-4-fluorophenyl)-4-(cyclopropanecarboxamido)-2-methyl-4,5,6,7-tetrahydro-2H-isoindole-1-carboxamide], the EC50 under setting [2] was 1 µM.

With `Cn1ccc(COC(=O)NC2CCCc3c2cn(C)c3C(=O)Nc2ccc(F)c(Cl)c2)n1` (single isomer, unassigned) [Compound 77, (1-Methyl-1H-pyrazol-3-yl)methyl(1-((3-chloro-4-fluorophenyl)carbamoyl)-2-methyl-4,5,6,7-tetrahydro-2H-isoindol-4-yl)carbamate], the EC50 under setting [3] is 0.07 µM.

In the case of `Cn1cc2c(c1C(=O)Nc1ccc(F)c(Cl)c1)CCCC2NS(=O)(=O)C1CC1` (single isomer, unassigned) [Compound 78, N-(3-Chloro-4-fluorophenyl)-4-(cyclopropanesulfonamido)-2-methyl-4,5,6,7-tetrahydro-2H-isoindole-1-carboxamide], the EC50 under setting [2] turned out to be 3.96 µM.

`COC(=O)NC1CCCCc2c1cn(C)c2C(=O)Nc1ccc(F)c(Cl)c1` (single isomer, unassigned) [Compound 79, Methyl (1-((3-chloro-4-fluorophenyl)carbamoyl)-2-methyl-2,4,5,6,7,8-hexahydrocyclohepta[c]pyrrol-4-yl)carbamate]: the EC50 under setting [3] came out at 0.73 µM.
